Key:
Format in all cases: cell-based
[1] = test system: A549 (lung adenocarcinoma); test: Antiproliferative activity (CCK-8 cell viability), A549; conditions: Homo sapiens, 72 h; for inhibition at 3.3 µM: Compound concentration: 3.3 μM; for inhibition at 3.3 µM / inhibition at 10 µM: read-out: Antiproliferative activity in cancerous cells, A549 (inhibition of cell growth); for inhibition at 10 µM: Compound concentration: 10 μM
Experimental: (§1) The antiproliferative activity of a compound was determined in the following cell lines: MDA-MB-231 (breast cancer), HepG2 (liver cancer), SW480 (colon cancer), B16F10 (malignant melanoma), A431 (epidermoid carcinoma), A549 (lung adenocarcinoma), and HeLa (cervical cancer). MDA-MB-231, HepG2, SW480, B16F10, and A431 cells were cultured in Dulbecco's modified Eagle's medium (DMEM) containing 10% fetal bovine serum (FBS). HeLa cells were cultured in MEM/EBSS (MEM) containing 10% FBS. A549 cells were maintained in Kaighn's modification of Ham's F-12 medium containing 10% FBS. A Cell Counting Kit-8 (CCK-8) was used to measure the cell viability of different cells following treatment with the compound.
(§2) Briefly cells were seeded in a 96-well plate at a density of 2,000-5,000 cells/well. Following attachment, the cells were treated with the compound in media at a compound concentration of 3.3 μM, 10 μM, or 30 μM. After the cells were incubated at 37° C. for 72 h, a CCK-8 solution (10 μL) was added to each well. After incubation at 37° C. for 4 h, the absorbance value of each well was determined using a multi-well plate reader at 450 nm. The wells treated with DMSO were taken as a vehicle control. Data were also obtained similarly for all the replicates and the percentage of cell viability was determined with respect to the DMSO-treated cells. The results are summarized in Tables 2-4, wherein A represents no less than […] of cell growth; B represents no less than 30% but less than 50% inhibition of cell growth; and C represents less than 30% inhibition of cell growth.

SW480 (colon cancer) = test: Antiproliferative activity (CCK-8 cell viability), SW480; conditions: Homo sapiens, 72 h; for inhibition at 3.3 µM: Compound concentration: 3.3 μM; for inhibition at 3.3 µM / inhibition at 10 µM: read-out: Antiproliferative activity in cancerous cells, SW480 (inhibition of cell growth); for inhibition at 10 µM: Compound concentration: 10 μM
Experimental: as §1, §2

HeLa (cervical cancer) = test: Antiproliferative activity (CCK-8 cell viability), HeLa; conditions: Homo sapiens, 72 h, read-out: Antiproliferative activity in cancerous cells, HELA (inhibition of cell growth); for inhibition at 3.3 µM: Compound concentration: 3.3 μM; for inhibition at 10 µM: Compound concentration: 10 μM
Experimental: as §1, §2

[2] = test system: B16F10 (malignant melanoma); test: Antiproliferative activity (CCK-8 cell viability), B16F10; conditions: Mus musculus, 72 h; for inhibition at 3.3 µM: B16-F10, Compound concentration: 3.3 μM; for inhibition at 3.3 µM / inhibition at 10 µM: read-out: Antiproliferative activity in cancerous cells, B16F10 (inhibition of cell growth); for inhibition at 10 µM: B16-F10, Compound concentration: 10 μM
Experimental: as §1, §2

[3] = test system: A431 (epidermoid carcinoma); test: Antiproliferative activity (CCK-8 cell viability), A431; conditions: Homo sapiens, 72 h, read-out: Antiproliferative activity in cancerous cells, A431 (inhibition of cell growth); for inhibition at 3.3 µM: A-431, Compound concentration: 3.3 μM; for inhibition at 10 µM: A-431, Compound concentration: 10 μM
Experimental: as §1, §2

[4] = test system: MDA-MB-231 (breast cancer); test: Antiproliferative activity (CCK-8 cell viability), MDA-MB-231; conditions: Homo sapiens, 72 h; for inhibition at 3.3 µM: Compound concentration: 3.3 μM; for inhibition at 3.3 µM / inhibition at 10 µM: read-out: Antiproliferative activity in cancerous cells, MDA-MB-231 (inhibition of cell growth); for inhibition at 10 µM: Compound concentration: 10 μM; for inhibition at 30 µM: Compound concentration: 30 μM, read-out: Antiproliferative activity in cancerous cells, MDA-MB-231
Experimental: as §1, §2

HepG2 (liver cancer) = test: Antiproliferative activity (CCK-8 cell viability), HepG2; conditions: Homo sapiens, 72 h; for inhibition at 3.3 µM: Compound concentration: 3.3 μM; for inhibition at 3.3 µM / inhibition at 10 µM: read-out: Antiproliferative activity in cancerous cells, HepG2 (inhibition of cell growth); for inhibition at 10 µM: Compound concentration: 10 μM
Experimental: as §1, §2

Structure (SMILES)	inhibition at 3.3 µM [1]	inhibition at 10 µM [1]	inhibition at 3.3 µM (SW480 (colon cancer))	inhibition at 10 µM (SW480 (colon cancer))	inhibition at 3.3 µM (HeLa (cervical cancer))	inhibition at 10 µM (HeLa (cervical cancer))	inhibition at 3.3 µM [2]	inhibition at 10 µM [2]	inhibition at 3.3 µM [3]	inhibition at 10 µM [3]	inhibition at 3.3 µM [4]	inhibition at 10 µM [4]	inhibition at 3.3 µM (HepG2 (liver cancer))	inhibition at 10 µM (HepG2 (liver cancer))	inhibition at 30 µM [4]	inhibition at 30 µM ([1]; Compound concentration: 30 μM, read-out: Antiproliferative activity in cancerous cells, A549)	inhibition at 30 µM (SW480 (colon cancer); Compound concentration: 30 μM, read-out: Antiproliferative activity in cancerous cells, SW480)	inhibition at 30 µM ([2]; B16-F10, Compound concentration: 30 μM, read-out: Antiproliferative activity in cancerous cells, B16F10)	inhibition at 30 µM (HepG2 (liver cancer); Compound concentration: 30 μM, read-out: Antiproliferative activity in cancerous cells, HepG2)
CC1=C(CC(=O)O)c2cc(F)ccc2/C1=C\c1ccc(CCOc2ccccc2)cc1 [B32, (Z)-2-(5-Fluoro-2-methyl-1-(4-(2-phenoxyethyl)benzylidene)-1H-inden-3-yl)acetic acid]	30 to 50%	≥ 50%	30 to 50%	30 to 50%	< 30%	≥ 50%	30 to 50%	≥ 50%	30 to 50%	≥ 50%	< 30%	< 30%	< 30%	≥ 50%	–	–	–	–	–
CC1=C(CC(=O)O)c2cc(F)ccc2/C1=C\c1ccc(CCOc2ccc(F)cc2)cc1 [B33, (Z)-2-(5-Fluoro-1-(4-(2-(4-fluorophenoxy)ethyl)benzylidene)-2-methyl-1H-inden-3-yl)acetic acid]	< 30%	30 to 50%	< 30%	30 to 50%	< 30%	30 to 50%	≥ 50%	≥ 50%	≥ 50%	≥ 50%	< 30%	30 to 50%	< 30%	30 to 50%	–	–	–	–	–
CC1=C(CC(=O)O)c2cc(F)ccc2/C1=C\c1ccc(CCOc2ccc(Cl)cc2)cc1 [B34, (Z)-2-(1-(4-(2-(4-Chlorophenoxy)ethyl)benzylidene)-5-fluoro-2-methyl-1H-inden-3-yl)acetic acid]	30 to 50%	≥ 50%	< 30%	≥ 50%	< 30%	≥ 50%	30 to 50%	≥ 50%	≥ 50%	≥ 50%	< 30%	< 30%	< 30%	≥ 50%	–	–	–	–	–
CC1=C(CC(=O)O)c2cc(F)ccc2/C1=C\c1ccc(OCCc2ccc(Cl)cc2)cc1 [B35, (Z)-2-(1-(4-(4-Chlorophenethoxy)benzylidene)-5-fluoro-2-methyl-1H-inden-3-yl)acetic acid]	≥ 50%	≥ 50%	< 30%	≥ 50%	< 30%	≥ 50%	≥ 50%	≥ 50%	≥ 50%	≥ 50%	≥ 50%	≥ 50%	30 to 50%	≥ 50%	–	–	–	–	–
CC1=C(CC(=O)O)c2cc(F)ccc2/C1=C\c1ccc(CSc2nc3ccccc3[nH]2)cc1 [B44, (Z)-2-(1-(4-(((1H-Benzo[d]imidazol-2-yl)thio)methyl)benzylidene)-5-fluoro-2-methyl-1H-inden-3-yl)acetic acid]	< 30%	≥ 50%	30 to 50%	≥ 50%	≥ 50%	≥ 50%	≥ 50%	≥ 50%	< 30%	≥ 50%	≥ 50%	≥ 50%	≥ 50%	≥ 50%	–	–	–	–	–
CC1=C(CC(=O)O)c2cc(F)ccc2/C1=C\c1ccc(CSc2ccc(F)cc2)cc1 [B45, (Z)-2-(5-Fluoro-1-(4-(((4-fluorophenyl)thio)methyl)benzylidene)-2-methyl-1H-inden-3-yl)acetic acid]	< 30%	< 30%	< 30%	≥ 50%	< 30%	≥ 50%	< 30%	≥ 50%	< 30%	30 to 50%	< 30%	< 30%	< 30%	≥ 50%	< 30%	–	–	–	–
COc1ccc(S(=O)(=O)Cc2ccc(/C=C3/C(C)=C(CC(=O)O)c4cc(F)ccc43)cc2)cc1 [B46, (Z)-2-(5-Fluoro-1-(4-(((4-methoxyphenyl)sulfonyl)methyl)benzylidene)-2-methyl-1H-inden-3-yl)acetic acid]	< 30%	< 30%	30 to 50%	30 to 50%	< 30%	≥ 50%	< 30%	≥ 50%	30 to 50%	≥ 50%	< 30%	30 to 50%	30 to 50%	30 to 50%	–	–	–	–	–
CC1=C(CC(=O)O)c2cc(F)ccc2/C1=C\c1ccc(CCOC2CCCCO2)cc1 (stereo not drawn) [B47, (Z)-2-(5-Fluoro-2-methyl-1-(4-(2-((tetrahydro-2H-pyran-2-yl)oxy)ethyl)-benzylidene)-1H-inden-3-yl)acetic acid]	< 30%	≥ 50%	< 30%	≥ 50%	≥ 50%	≥ 50%	≥ 50%	≥ 50%	30 to 50%	30 to 50%	≥ 50%	≥ 50%	30 to 50%	≥ 50%	–	–	–	–	–
CCc1ccc2c(c1)/C(=C\c1ccc(COc3ccccc3)cc1)C(C)=C2CC(=O)O [B48, (Z)-2-(6-Ethyl-2-methyl-1-(4-(phenoxymethyl)benzylidene)-1H-inden-3-yl)acetic acid]	< 30%	30 to 50%	< 30%	< 30%	30 to 50%	≥ 50%	30 to 50%	30 to 50%	≥ 50%	≥ 50%	< 30%	< 30%	< 30%	< 30%	< 30%	30 to 50%	< 30%	30 to 50%	< 30%
